In patent US20070185211A1, “Crystal forms of cinacalcet HCI and processes for their preparation” (priority 2005, published 2007):

Assay: Crystal form after drying/heating at 50° C. (solid state stability of the polymorph)
Type: physicochemical
Experimental: X-Ray powder diffraction data were obtained using a SCINTAG powder X-Ray diffractometer model X'TRA equipped with a solid state detector and a variable gonimeter. Copper radiation of 1.5418 Å was used. A round standard aluminum sample holder with round zero background, and cavity of 25(diameter)*0.5(dept) mm. Scanning parameters range of: 2-40 deg. 2θ and continuous scan rate of 3 deg./min.
0.62 gr of Cinacalcet HCl was dissolved in Chloroform (6 ml) at room temperature. […] The slurry was stirred at room temperature for 4 minutes. […]

crystalline structure after drying (dried at 50° C. for 24 hours): maintained as form III
crystal form obtained after heating (heated at 50° C. under vacuum for 22 hours): form I was obtained
SMILES: C[C@@H](NCCCc1cccc(C(F)(F)F)c1)c1cccc2ccccc12.Cl [Cinacalcet HCl crystal form III, (R)-α-methyl-N-[3-[3-(trifluoromethyl)phenyl]propyl]-1-naphthalenemethane amine]
